Laboratory results reported in US8969363B2, “Heterocyclic compounds and uses thereof” (Infinity Pharmaceuticals, Inc., priority 2011, dated 2015).
Like-named read-outs stand apart in the source and are kept apart here.

What was measured:
PI3Kα = biological target: T1, PI3Kα (Homo sapiens, UniProt P42336); assay: PI3 Kinase HTRF assay, PI3Kα; type: biochemical; settings: 10 μM PIP2, 10 μM ATP; 'Greater than 10 μM' and 'Greater than 1 μM to 10 μM'; read-out: PI3K α IC50
T1 construct: purchased Millipore Corporation 14-602-K
T1 sequence (P42336 whole entry): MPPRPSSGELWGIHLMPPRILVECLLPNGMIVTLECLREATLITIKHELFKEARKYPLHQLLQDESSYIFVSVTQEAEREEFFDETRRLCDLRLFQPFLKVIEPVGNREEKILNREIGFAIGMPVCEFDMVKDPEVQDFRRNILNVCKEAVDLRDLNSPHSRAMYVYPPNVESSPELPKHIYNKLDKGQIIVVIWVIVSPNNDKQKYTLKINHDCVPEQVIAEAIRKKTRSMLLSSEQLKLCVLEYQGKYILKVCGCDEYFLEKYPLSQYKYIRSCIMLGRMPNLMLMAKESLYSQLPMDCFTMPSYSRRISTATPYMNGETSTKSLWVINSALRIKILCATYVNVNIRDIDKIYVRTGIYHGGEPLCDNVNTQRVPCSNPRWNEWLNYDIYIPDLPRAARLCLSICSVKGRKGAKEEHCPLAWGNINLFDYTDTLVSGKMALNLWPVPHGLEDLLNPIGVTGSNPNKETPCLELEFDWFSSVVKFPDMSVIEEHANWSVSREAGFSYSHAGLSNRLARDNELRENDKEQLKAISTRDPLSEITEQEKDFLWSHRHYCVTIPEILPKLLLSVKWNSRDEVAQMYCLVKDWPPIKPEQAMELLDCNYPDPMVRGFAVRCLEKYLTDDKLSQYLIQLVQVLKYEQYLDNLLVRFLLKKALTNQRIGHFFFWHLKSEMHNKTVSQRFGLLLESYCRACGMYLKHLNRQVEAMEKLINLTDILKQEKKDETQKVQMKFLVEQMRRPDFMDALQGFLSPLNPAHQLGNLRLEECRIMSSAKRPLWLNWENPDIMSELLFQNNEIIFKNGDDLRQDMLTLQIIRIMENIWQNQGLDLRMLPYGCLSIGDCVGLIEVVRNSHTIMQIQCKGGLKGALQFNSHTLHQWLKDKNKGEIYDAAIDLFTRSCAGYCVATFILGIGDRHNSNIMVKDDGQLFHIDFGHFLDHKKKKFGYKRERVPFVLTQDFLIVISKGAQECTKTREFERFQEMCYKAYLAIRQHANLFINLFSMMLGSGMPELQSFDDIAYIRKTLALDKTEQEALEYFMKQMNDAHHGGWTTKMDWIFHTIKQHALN
T1 sequence (P27986 whole entry partner): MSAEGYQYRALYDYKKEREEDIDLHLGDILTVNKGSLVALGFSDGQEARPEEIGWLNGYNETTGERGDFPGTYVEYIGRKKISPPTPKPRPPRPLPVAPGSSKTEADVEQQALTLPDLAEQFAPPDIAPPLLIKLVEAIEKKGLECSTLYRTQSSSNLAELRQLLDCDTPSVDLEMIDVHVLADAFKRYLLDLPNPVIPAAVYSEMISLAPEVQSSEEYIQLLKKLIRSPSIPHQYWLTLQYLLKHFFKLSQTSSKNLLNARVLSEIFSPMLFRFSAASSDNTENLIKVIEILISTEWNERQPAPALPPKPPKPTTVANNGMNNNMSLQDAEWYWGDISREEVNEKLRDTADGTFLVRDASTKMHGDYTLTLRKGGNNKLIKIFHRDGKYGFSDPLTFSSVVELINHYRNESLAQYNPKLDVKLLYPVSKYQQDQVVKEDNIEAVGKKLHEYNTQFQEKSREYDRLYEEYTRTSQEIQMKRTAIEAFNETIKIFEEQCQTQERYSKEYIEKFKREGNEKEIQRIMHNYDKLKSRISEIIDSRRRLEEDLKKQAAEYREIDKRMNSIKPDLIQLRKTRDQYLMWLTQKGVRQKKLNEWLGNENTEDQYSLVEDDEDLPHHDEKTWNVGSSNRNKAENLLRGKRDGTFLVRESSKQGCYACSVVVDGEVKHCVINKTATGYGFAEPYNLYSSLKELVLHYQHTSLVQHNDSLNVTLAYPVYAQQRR
From the text: (§1) A PI3-Kinase HTRF® assay kit (cat No. 33-016) purchased from Millipore Corporation was used to screen compounds provided herein. This assay used specific, high affinity binding of the GRP1 pleckstrin homology (PH) domain to PIP3, the product of a Class 1A or 1B PI3 Kinase acting on its physiological substrate PIP2. During the detection phase of the assay, a complex was generated between the GST-tagged PH domain and biotinylated short chain PIP3. The biotinylated PIP3 and the GST-tagged PH domain recruited fluorophores (Streptavidin-Allophycocyanin and Europium-labeled anti-GST respectively) to form the fluorescence resonance energy transfer (FRET) architecture, generating a stable time-resolved FRET signal. The FRET complex was disrupted in a competitive manner by non-biotinylated PIP3, a product formed in the PI3 Kinase assay.
(§2) PI3 Kinase α, β, γ and δ activity was assayed using the PI3 Kinase HTRF® assay kit (catalogue No. 33-016) purchased from Millipore Corporation. Purified recombinant PI3Kα (catalogue No. 14-602-K), PI3Kβ (catalogue No. 14-603-K), PI3Kγ (catalogue No. 14-558-K) and PI3Kδ (catalogue No. 14-604-K) were obtained from Millipore Corporation. Purified recombinant PI3K enzyme was used to catalyze the phosphorylation of phosphatidylinositol 4,5-bisphosphate (PIP2 at 10 μM) to phosphatidylinositol 3,4,5-trisphosphate (PIP3) in the presence of 10 μM ATP. The assay was carried out in 384-well format and detected using a Perkin Elmer EnVision Xcite Multilabel Reader. Emission ratios were converted into percent inhibitions and imported into GraphPad Prism software. The concentration necessary to achieve inhibition of enzyme activity by 50% (IC50) was calculated using concentrations ranging from 20 μM to 0.1 nM (12-point curve). IC50 values were determined using a nonlinear regression model available in GraphPad Prism 5. […]

Balb/c splenic B cells = assay: B cell activation and proliferation assay (Alamar Blue); type: cell-based; settings: Mus musculus
Experimental: The ability of one or more subject compounds to inhibit B cell activation and proliferation is determined according to standard procedures known in the art. For example, an in vitro cellular proliferation assay is established that measures the metabolic activity of live cells. The assay is performed in a 96 well microtiter plate using Alamar Blue reduction. Balb/c splenic B cells are purified over a Ficoll-Paque™ PLUS gradient followed by magnetic cell separation using a MACS B cell Isolation Kit (Miletenyi). Cells are plated in 90 μl at 50,000 cells/well in B Cell Media (RPMI+10% FBS+Penn/Strep+50 μM bME+5 mM HEPES). A compound provided herein is diluted in B Cell Media and added in a 10 μl volume. Plates are incubated for 30 min at 37° C. and 5% CO2 (0.2% DMSO final concentration). A 50 μl B cell stimulation cocktail is then added containing either 10 μg/ml LPS or 5 μg/ml F(ab′)2 Donkey anti-mouse […] plus 2 ng/ml recombinant mouse IL4 in B Cell Media. Plates are incubated for 72 hours at 37° C. and 5% CO2. A volume of 15 μL of Alamar Blue reagent is added to each well and plates are incubated for 5 hours at 37° C. and 5% CO2. Alamar Blue fluoresce is read at 560Ex/590Em, and IC50 or EC50 values are calculated using GraphPad Prism 5.

PI3Kβ = assay: PI3 Kinase HTRF assay, PI3Kβ; type: biochemical, human; settings: 10 μM PIP2, 10 μM ATP, read-out: PI3K β IC50
PI3Kβ, sequence (Q8BTI9 whole entry): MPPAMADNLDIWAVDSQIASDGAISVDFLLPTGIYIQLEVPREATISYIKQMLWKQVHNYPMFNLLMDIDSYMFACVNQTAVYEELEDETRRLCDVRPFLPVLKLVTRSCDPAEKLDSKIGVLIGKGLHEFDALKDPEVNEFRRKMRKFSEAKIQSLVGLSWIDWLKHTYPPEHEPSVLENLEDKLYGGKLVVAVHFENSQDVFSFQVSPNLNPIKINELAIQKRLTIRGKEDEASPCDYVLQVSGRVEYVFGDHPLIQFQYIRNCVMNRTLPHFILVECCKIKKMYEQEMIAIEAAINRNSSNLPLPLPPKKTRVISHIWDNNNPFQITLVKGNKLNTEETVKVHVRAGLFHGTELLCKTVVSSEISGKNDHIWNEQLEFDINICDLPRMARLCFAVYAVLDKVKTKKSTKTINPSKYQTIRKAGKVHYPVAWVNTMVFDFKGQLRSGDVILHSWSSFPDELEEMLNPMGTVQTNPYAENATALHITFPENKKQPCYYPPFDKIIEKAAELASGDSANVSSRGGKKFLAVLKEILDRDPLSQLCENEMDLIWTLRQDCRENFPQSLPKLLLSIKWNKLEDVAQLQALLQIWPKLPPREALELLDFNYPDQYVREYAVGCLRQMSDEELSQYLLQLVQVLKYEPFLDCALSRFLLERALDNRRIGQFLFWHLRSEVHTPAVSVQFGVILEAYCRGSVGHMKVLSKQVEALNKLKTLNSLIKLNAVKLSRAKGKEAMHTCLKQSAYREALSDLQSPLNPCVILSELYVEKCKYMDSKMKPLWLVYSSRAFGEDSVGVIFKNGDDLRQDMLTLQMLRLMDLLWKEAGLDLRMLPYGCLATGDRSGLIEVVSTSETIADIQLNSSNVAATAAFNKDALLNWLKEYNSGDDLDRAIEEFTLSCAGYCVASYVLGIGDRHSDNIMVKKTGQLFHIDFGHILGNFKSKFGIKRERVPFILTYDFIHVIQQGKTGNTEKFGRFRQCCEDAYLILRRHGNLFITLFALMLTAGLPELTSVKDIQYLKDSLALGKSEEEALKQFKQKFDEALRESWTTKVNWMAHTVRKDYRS
From the text: as §1
as §2, with “Purified recombinant PI3Kα (catalogue No. 14-602-K), PI3Kβ (catalogue No. 14-603-K), PI3Kγ (catalogue No. 14-558-K) and PI3Kδ (catalogue No. 14-604-K) were obtained from Millipore Corporation.” left out, “The concentration necessary to achieve inhibition of enzyme activity by 50% (IC50) was calculated using concentrations ranging from 20 μM to 0.1 nM (12-point curve).” left out

[1] = 'Greater than 10 μM' and 'Greater than 1 μM to 10 μM'

SMILES | IC50 (PI3Kα) [nM] | EC50 (Balb/c splenic B cells; 'Less than 100 nM') [nM] | IC50 (PI3Kβ; [1]) [nM] | EC50 (Balb/c splenic B cells; 1 μM to 100 nM) [nM] | IC50 (PI3Kβ; 'Less than 100 nM') [nM]
C[C@H](Nc1ncnc2cccnc12)c1cc2cccc(Cl)c2c(=O)n1-c1ccccc1 [Compound I-2] | 1000 to 10000 | < 100 |  |  | 
C[C@H](Nc1ncnc2cccnc12)c1cc2scc(Cl)c2c(=O)n1-c1ccccc1 [Compound I-29] | 1000 to 10000 |  |  |  | 
C[C@H](Nc1nc(N)nc2cccnc12)c1cc2cccc(-c3cnn(C)c3)c2c(=O)n1-c1ccccc1 [Compound I-36] | 1000 to 10000 |  | > 10000 |  | 
Cc1cc(-c2cccc3cc([C@H](C)Nc4ncnc5cccnc45)n(-c4ccccc4)c(=O)c23)cnc1C [Compound I-44] | 1000 to 10000 |  | > 10000 |  | 
Cc1nn(C)cc1-c1cccc2cc([C@H](C)Nc3ncnc4cccnc34)n(-c3ccccc3)c(=O)c12 [Compound I-47] | 1000 to 10000 |  | > 10000 |  | 
C[C@H](Nc1ccnc2cccnc12)c1cc2cccc(Cl)c2c(=O)n1-c1ccccc1 [Compound I-49] | 1000 to 10000 | < 100 |  |  | 
Cc1cc(-c2cccc3nc([C@H](C)Nc4nc(N)nc5cccnc45)n(-c4ccccc4)c(=O)c23)ccn1 [Compound I-88] |  | < 100 | 1000 to 10000 |  | 
CNc1nc(N[C@@H](C)c2cc3cccc(NC)c3c(=O)n2-c2ccccc2)c2ncccc2n1 [Compound I-95] |  |  | > 10000 | 100 to 1000 | 
CNc1nc(N[C@@H](C)c2cc3cccc(-c4cnc(OC)nc4)c3c(=O)n2-c2ccccc2)c2ncccc2n1 [Compound I-97] |  | < 100 | > 10000 |  | 
CNc1nc(N[C@@H](C)c2cc3cccc(-c4cnc(C)nc4)c3c(=O)n2-c2ccccc2)c2ncccc2n1 [Compound I-98] |  |  | > 10000 | 100 to 1000 | 
CNc1cccc2cc([C@H](C)Nc3nc(N)nc4cccnc34)n(-c3ccccc3)c(=O)c12 [Compound I-101] |  | < 100 | > 10000 |  | 
C[C@H](Nc1ccnc2ccnn12)c1cc2cccc(Cl)c2c(=O)n1-c1ccccc1 [II-2, (S)-8-chloro-2-phenyl-3-(1-(pyrazolo[1,5-a]pyrimidin-7-ylamino)ethyl)isoquinolin-1(2H)-one] | 1000 to 10000 | < 100 |  |  | 
C[C@H](Nc1ccnc2ccnn12)c1cc2cccc(Cl)c2c(=O)n1C1CC1 [II-7] | 1000 to 10000 | < 100 |  |  | 
C[C@H](Nc1ccnn2ccnc12)c1cc2cccc(Cl)c2c(=O)n1-c1ccccc1 [II-10] |  | < 100 |  |  | < 100
C[C@H](Nc1ccnn2ccnc12)c1cc2cccc(Cl)c2c(=O)n1C1CC1 [II-11] | 1000 to 10000 | < 100 |  |  | 
C[C@H](Nc1ccnn2ccnc12)c1cc2cccc(Cl)c2c(=O)n1-c1cccc(F)c1 [II-14] | 1000 to 10000 | < 100 |  |  | 
C[C@H](Nc1ccnc2ccnn12)c1cc2scc(Cl)c2c(=O)n1-c1ccccc1 [II-20] | 1000 to 10000 |  |  |  | 
C[C@H](Nc1ccnn2ccnc12)c1cc2scc(Cl)c2c(=O)n1-c1ccccc1 [II-22] | 1000 to 10000 |  |  |  | 
C[C@H](Nc1ncnc2ccnn12)c1cc2cccc(Cl)c2c(=O)n1-c1ccccc1 [II-24] | 1000 to 10000 |  |  |  | 
C[C@H](Nc1ncnc2ccnn12)c1cc2cccc(Cl)c2c(=O)n1-c1cccc(F)c1 [II-30] |  | < 100 | 1000 to 10000 |  | 

SMILES | IC50 (PI3Kα) [nM] | EC50 (Balb/c splenic B cells; 'Less than 100 nM') [nM] | IC50 (PI3Kβ; [1]) [nM] | EC50 (Balb/c splenic B cells; 1 μM to 100 nM) [nM] | IC50 (PI3Kβ; 'Less than 100 nM') [nM]
COc1ncc(-c2cccc3cc([C@H](C)Nc4ccnn5ccnc45)n(-c4ccccc4)c(=O)c23)cn1 [II-48] | 1000 to 10000 |  | > 10000 |  | 
C[C@H](Nc1cc(N)nc2ccnn12)c1cc2cccc(Cl)c2c(=O)n1-c1ccccc1 [II-49] |  | < 100 | 1000 to 10000 |  | 
COc1ncc(-c2cccc3cc([C@H](C)Nc4cc(N)nc5ccnn45)n(-c4ccccc4)c(=O)c23)cn1 [II-50] |  | < 100 | > 10000 |  | 
C[C@H](Nc1ncnc2[nH]cnc12)c1cc2cccc(C(F)(F)F)c2c(=O)n1-c1ccccc1 [III-3] | 1000 to 10000 | < 100 |  |  | 
C[C@H](Nc1ncnc2cccnc12)c1cc2cccc(C(F)(F)F)c2c(=O)n1-c1ccccc1 [III-4] | 1000 to 10000 | < 100 |  |  | 
C[C@H](Nc1ncnc2scnc12)c1cc2cccc(C(F)(F)F)c2c(=O)n1-c1ccccc1 [III-5] |  | < 100 |  |  | < 100
C[C@H](Nc1ccnc2ccnn12)c1cc2cccc(C(F)(F)F)c2c(=O)n1-c1ccccc1 [III-6] | 1000 to 10000 | < 100 |  |  | 
C[C@H](Nc1ccnc2ccnn12)c1cc2cccc(C(F)(F)F)c2c(=O)n1-c1cccc(F)c1 [III-11] |  | < 100 | 1000 to 10000 |  | 
C[C@H](Nc1nc(N)nc2[nH]cnc12)c1cc2cccc(C(F)(F)F)c2c(=O)n1-c1ccccc1 [III-17] |  | < 100 |  |  | < 100
C[C@H](Nc1ncnc2[nH]cc(F)c12)c1cc2cccc(C(F)(F)F)c2c(=O)n1-c1ccccc1 [III-18] | 1000 to 10000 |  | 1000 to 10000 |  | 
C[C@H](Nc1ncnc2[nH]cc(C(N)=O)c12)c1cc2cccc(C(F)(F)F)c2c(=O)n1-c1ccccc1 [III-20] | 1000 to 10000 |  |  |  | 
C[C@H](Nc1nc(N)nc2cccnc12)c1cc2cccc(C(F)(F)F)c2c(=O)n1-c1ccccc1 [III-23] | 1000 to 10000 |  |  |  | 
C[C@H](Nc1nc(N)nc2scnc12)c1cc2cccc(C(F)(F)F)c2c(=O)n1-c1ccccc1 [III-25] | 1000 to 10000 |  | 1000 to 10000 |  | 
C[C@H](Nc1ccnc2cccnc12)c1cc2cccc(C(F)(F)F)c2c(=O)n1-c1ccccc1 [III-31] |  | < 100 | 1000 to 10000 |  | 
C[C@H](Nc1ncnc(N)c1C#N)c1cc2cccc(C(F)(F)F)c2c(=O)n1-c1ccccc1 [III-42] |  | < 100 | > 10000 |  | 
C[C@H](Nc1nc(N)ncc1C(F)(F)F)c1cc2cccc(C(F)(F)F)c2c(=O)n1-c1cccc(F)c1 [III-46] |  |  | 1000 to 10000 | 100 to 1000 | 
C[C@H](Nc1ncnc2[nH]nc(C#N)c12)c1cc2cccc(Cl)c2c(=O)n1-c1ccccc1 [IV-11] |  | < 100 | 1000 to 10000 |  | 
C[C@H](Nc1ncnn2ccnc12)c1cc2cccc(Cl)c2c(=O)n1-c1ccccc1 [IV-12] | 1000 to 10000 |  |  |  | 
C[C@H](Nc1ncnn2ccnc12)c1cc2cccc(Cl)c2c(=O)n1-c1cccc(F)c1 [IV-13] | 1000 to 10000 |  | 1000 to 10000 |  | 
C[C@H](Nc1nc(N)nc2nccnc12)c1cc2cccc(Cl)c2c(=O)n1-c1ccccc1 [IV-22] |  | < 100 | 1000 to 10000 |  | 
